Measured values published in patent publication US9957271B2, “Substituted bicyclic aza-heterocycles and analogues as sirtuin modulators” (GlaxoSmithKline, LLC, priority 2012, dated 2018).

Assays:
SIRT1 [1] = target: T1, SIRT1 (Homo sapiens, UniProt Q96EB6); assay: TAMRA based mass spectrometry assay of SIRT1 activity; format: biochemical; conditions: for Emax: read-out: TAMRA % Fold Act
T1 sequence (Q96EB6 1-747): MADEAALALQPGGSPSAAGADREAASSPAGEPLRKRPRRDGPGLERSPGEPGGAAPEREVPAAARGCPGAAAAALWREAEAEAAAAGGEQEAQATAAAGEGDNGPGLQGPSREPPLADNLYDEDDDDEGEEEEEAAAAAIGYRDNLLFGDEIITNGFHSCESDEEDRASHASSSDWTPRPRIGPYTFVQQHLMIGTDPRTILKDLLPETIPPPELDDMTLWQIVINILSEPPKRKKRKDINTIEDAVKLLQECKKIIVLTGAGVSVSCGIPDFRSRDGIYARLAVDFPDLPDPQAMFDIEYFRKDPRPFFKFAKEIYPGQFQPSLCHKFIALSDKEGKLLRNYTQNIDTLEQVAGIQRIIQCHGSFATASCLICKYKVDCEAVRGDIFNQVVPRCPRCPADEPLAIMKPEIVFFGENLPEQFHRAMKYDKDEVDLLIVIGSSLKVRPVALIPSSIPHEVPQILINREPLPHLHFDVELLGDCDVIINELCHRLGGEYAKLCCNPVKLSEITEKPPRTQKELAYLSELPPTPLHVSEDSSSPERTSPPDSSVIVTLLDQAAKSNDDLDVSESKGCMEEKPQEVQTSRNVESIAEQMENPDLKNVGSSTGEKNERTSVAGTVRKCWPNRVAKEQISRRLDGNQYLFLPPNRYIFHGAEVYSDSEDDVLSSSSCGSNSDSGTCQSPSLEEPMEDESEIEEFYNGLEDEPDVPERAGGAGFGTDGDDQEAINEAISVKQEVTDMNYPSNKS
In short: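 Deacetylation of a biotinylated, TAMRA-tagged p53-based peptide (0.5 μM) by 10 nM His-tagged SIRT1 with 120 μM βNAD+, 25 °C for 25 min, pH 8 Tris-acetate buffer, across a compound concentration range. Quenched by formic acid and read by mass spec as product peptide or OAADPR; activity relative to DMSO reactions, nicotinamide defining maximal inhibition.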

SIRT1 [2] = target: T1, SIRT1; assay: Trp mass spectrometry assay of SIRT1 activity; format: biochemical; conditions: for Emax: read-out: Trp % Fold Act
In short: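 Activation readout: EC1.5 (concentration raising activity 50% over control) and percent maximum activation, from mass-spec quantitation of OAADPR or deacetylated Trp peptide. Reaction: 0.5 μM acetylated Trp peptide, 120 μM βNAD+, 10 nM bacterially expressed N-His SIRT1, pH 7.5 HEPES buffer with […], 25 min at 25° C.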

[3] = TAMRA assay, concentration giving 150% activation of SIRT1
[4] = TAMRA assay, percent maximum fold activation
[5] = Trp assay, concentration giving 150% activation of SIRT1
[6] = Trp assay, percent maximum fold activation
[7] = TAMRA peptide substrate, concentration giving 150% activation of SIRT1
[8] = TAMRA peptide substrate, percent maximum fold activation
[9] = Trp peptide substrate, concentration giving 150% activation of SIRT1
[10] = Trp peptide substrate, percent maximum fold activation
[11] = concentration of test compound giving 150% activation of SIRT1, TAMRA peptide substrate
[12] = percent maximum fold activation of SIRT1, TAMRA peptide substrate
[13] = concentration of test compound giving 150% activation of SIRT1, Trp peptide substrate
[14] = percent maximum fold activation of SIRT1, Trp peptide substrate

| Structure (SMILES) | TAMRA EC1.5 (μM) (SIRT1 [1]; [3]) | Emax (SIRT1 [1]; [4]) [%] | Trp EC1.5 (μM) (SIRT1 [2]; [5]) | Emax (SIRT1 [2]; [6]) [%] | further results |
| --- | --- | --- | --- | --- | --- |
| Cc1nc2c(C)cc(-c3ccccc3C(F)(F)F)nn2c1C(=O)Nc1ccncn1 [Compound 460] | – | – | – | – | TAMRA EC1.5 (SIRT1 [1]; [7]): A (EC1.5<1 μM); Emax (SIRT1 [1]; [8]): ≥ 350%; Trp EC1.5 (SIRT1 [2]; [9]): A (EC1.5<1 μM); Emax (SIRT1 [2]; [10]): ≥ 350% |
| COc1nccc(NC(=O)c2cnc3ccc(-c4ccccc4OC(F)(F)F)nn23)n1 [Compound 430] | – | – | – | – | TAMRA EC1.5 (SIRT1 [1]; [7]): A (EC1.5<1 μM); Emax (SIRT1 [1]; [8]): ≥ 350%; Trp EC1.5 (SIRT1 [2]; [9]): A (EC1.5<1 μM); Emax (SIRT1 [2]; [10]): ≥ 350% |
| O=C(Nc1ncccn1)c1cnc2ccc(-c3ccccc3C(F)(F)F)nn12 [Compound 84] | – | – | – | – | TAMRA EC1.5 (μM) (SIRT1 [1]; [11]): B (EC1.5 1-25 μM); Emax (SIRT1 [1]; [12]): ≥ 350%; Trp EC1.5 (μM) (SIRT1 [2]; [13]): B (EC1.5 1-25 μM); Emax (SIRT1 [2]; [14]): ≥ 350% |
| N#Cc1ccccc1-c1ccc2ncc(NC(=O)c3cscn3)n2n1 [Compound 332] | B (EC1.5 1-25 μM) | < 350 | C (EC1.5>25 μM) | < 350 | – |
| Cc1cnc(C(=O)Nc2c(C)nc3ccc(-c4ccccc4Cl)nn23)s1 [Compound 354] | B (EC1.5 1-25 μM) | < 350 | C (EC1.5>25 μM) | < 350 | – |
| Cc1c(-c2ccccc2C(F)(F)F)nn2c(C(=O)Nc3cccc(OC[C@H](O)CO)n3)cnc2c1C [Compound 387, (R)-N-(6-(2,3-dihydroxypropoxy)pyridin-2-yl)-7,8-dimethyl-6-(2-(trifluoromethyl)phenyl)imidazo[1,2-b]pyridazine-3-carboxamide] | A (EC1.5<1 μM) | ≥ 350 | A (EC1.5<1 μM) | ≥ 350 | – |
| Cc1nc2ccc(-c3ccccc3C(F)(F)F)nn2c1NC(=O)c1ccccn1 [Compound 375] | B (EC1.5 1-25 μM) | ≥ 350 | C (EC1.5>25 μM) | < 350 | – |
| O=C(Nc1ccc(F)cn1)c1cnc2ccc(-c3ccccc3C(F)(F)F)nn12 [Compound 110] | – | – | – | – | TAMRA EC1.5 (μM) (SIRT1 [1]; [11]): A (EC1.5<1 μM); Emax (SIRT1 [1]; [12]): ≥ 350%; Trp EC1.5 (μM) (SIRT1 [2]; [13]): B (EC1.5 1-25 μM); Emax (SIRT1 [2]; [14]): < 350% |
| O=C(Nc1cncc(OC[C@H](O)CO)n1)c1cnc2ccc(-c3ccccc3C(F)(F)F)nn12 [Compound 555] | – | – | – | – | TAMRA EC1.5 (SIRT1 [1]; [7]): A (EC1.5<1 μM); Emax (SIRT1 [1]; [8]): ≥ 350%; Trp EC1.5 (SIRT1 [2]; [9]): A (EC1.5<1 μM); Emax (SIRT1 [2]; [10]): ≥ 350% |
| Cc1nc2ccc(-c3ccccc3C(F)(F)F)nn2c1C(=O)Nc1cnccn1 [Compound 463] | – | – | – | – | TAMRA EC1.5 (SIRT1 [1]; [7]): A (EC1.5<1 μM); Emax (SIRT1 [1]; [8]): ≥ 350%; Trp EC1.5 (SIRT1 [2]; [9]): B (EC1.5 1-25 μM); Emax (SIRT1 [2]; [10]): ≥ 350% |
| O=C(Nc1cnc2ccc(-c3ccccc3F)nn12)c1cccc(OCC(O)CO)n1 (centres unmarked) [Compound 305] | B (EC1.5 1-25 μM) | < 350 | A (EC1.5<1 μM) | < 350 | – |
| Cn1cnc(C(=O)Nc2cnc3ccc(-c4ccccc4C(F)(F)F)nn23)c1 [Compound 92] | – | – | – | – | TAMRA EC1.5 (μM) (SIRT1 [1]; [11]): B (EC1.5 1-25 μM); Emax (SIRT1 [1]; [12]): ≥ 350%; Trp EC1.5 (μM) (SIRT1 [2]; [13]): C (EC1.5>25 μM); Emax (SIRT1 [2]; [14]): < 350% |
| Cc1nc2ccc(-c3ccccc3C(F)(F)F)nn2c1C(=O)Nc1ccncn1 [Compound 461] | – | – | – | – | TAMRA EC1.5 (SIRT1 [1]; [7]): A (EC1.5<1 μM); Emax (SIRT1 [1]; [8]): ≥ 350%; Trp EC1.5 (SIRT1 [2]; [9]): B (EC1.5 1-25 μM); Emax (SIRT1 [2]; [10]): ≥ 350% |
| Cc1cc(C(=O)Nc2cnc3ccc(-c4ccccc4C(F)(F)F)nn23)nc(C)n1 [Compound 275] | A (EC1.5<1 μM) | ≥ 350 | B (EC1.5 1-25 μM) | < 350 | – |
| O=C(Nc1cnc2ccc(-c3ccccc3OC(F)(F)F)nn12)c1cccc(OCC(O)CO)n1 (centres unmarked) [Compound 323] | A (EC1.5<1 μM) | ≥ 350 | A (EC1.5<1 μM) | ≥ 350 | – |

The next lines start with results.

| TAMRA EC1.5 (μM) (SIRT1 [1]; [3]) | Emax (SIRT1 [1]; [4]) [%] | Trp EC1.5 (μM) (SIRT1 [2]; [5]) | Emax (SIRT1 [2]; [6]) [%] | Structure (SMILES) | further results |
| --- | --- | --- | --- | --- | --- |
| A (EC1.5<1 μM) | < 350 | A (EC1.5<1 μM) | < 350 | Cc1cccc(-c2ccc3nc(C)c(C(=O)Nc4ccc(C)nn4)n3n2)c1 [Compound 692] | – |
| A (EC1.5<1 μM) | < 350 | C (EC1.5>25 μM) | < 350 | Cc1ccc(NC(=O)c2c(C)nc3ccc(-c4ccccc4Cl)nn23)nn1 [Compound 742] | – |
